Experimental data taken from US8178506B2, “Oligomeric compounds and compositions for use in modulation of small non-coding RNAs” (Regulus Therapeutics Inc., priority 2003, dated 2012).
In the oligonucleotide strings, read from the 5' end, every base follows the letter of its sugar. An asterisk marks phosphorothioate; unmarked linkages are phosphodiester. Other units and linkages are bracketed, terminal groups are in braces. A string of capitals states the bases alone. e = 2'-O-(2-methoxyethyl) (MOE); [5mC] = 5-methylcytosine; d = 2'-deoxy (DNA)

What was measured:
[1] = tested on: BJ, B16-F10, T47D, T47Dp53 and HeLa cells; assay: Cell cycle assay (propidium iodide flow cytometry), cell line panel; format: cell-based; conditions: for G1 (percentage of cells in phase of the cell cycle) / G2/M (percentage of cells in phase of the cell cycle) / S (percentage of cells in phase of the cell cycle) / SubG1 (percentage of cells in phase of the cell cycle) / aneuploid (percentage of cells): 150 nM oligomeric compound, 4.5 μg/ml LIPOFECTIN, after 72 hours, propidium iodide flow cytometry
HeLa cells = assay: Cell cycle assay in HeLa cells; format: cell-based, human; conditions: HeLa cells, 150 nM oligomeric compound
Glut4 = Glut4 mRNA expression in adipocytes (real-time PCR); format: cell-based, human
adipocytes = assay: Triglyceride accumulation assay in adipocytes; format: cell-based, human
PPARγ = PPARγ mRNA expression in adipocytes (real-time PCR); format: cell-based, human
aP2 = aP2 mRNA expression in adipocytes (real-time PCR); format: cell-based, human; conditions: for aP2 mRNA: differentiating adipocytes transfected with oligomeric compound, Table 75
HSL = HSL mRNA expression in adipocytes (real-time PCR); format: cell-based, human
[2] = 24 hours, relative to untreated control (UTC = 100)
[3] = 48 hours after treatment, relative to untreated control (UTC=100)
[4] = differentiating adipocytes transfected with oligomeric compound, Table 75
[5] = Table 17, differentiating adipocytes, control = treatment with ISIS 342673

TACTTTATATAGAACACAAG (chemistry not given here) [ISIS 340365, 5-10-5 gapmer PS; targets mir-92-2]
percentage of aneuploid cells ([1]; 150 nM, 72 hours (Table 29)): higher than average percentages of aneuploid cells

CCGAGCTCTCTTATCAACAG (e[5mC]*e[5mC]*eG*eA*eG*d[5mC]*dT*d[5mC]*dT*d[5mC]*dT*dT*dA*dT*d[5mC]*eA*eA*e[5mC]*eA*eG) [ISIS 183891, 5-10-5 gapmer targeting kinesin-like 1 (Eg5), positive control, reference compound]
cell cycle delay or arrest in all cell lines ([1]; BJ 200 nM, T47D, T47Dp53, HeLa, B16 150 nM, 48 hours): delay or arrest in G2/M phase

328364 (eT*e[5mC]*eT*eT*eA*dA*dG*dT*d[5mC]*dA*d[5mC]*dA*dA*dA*dT*e[5mC]*eA*eG*e[5mC]*eA) [compound 328364]
G1 (percentage of cells in phase of the cell cycle) [1]: 61.5%
G2/M (percentage of cells in phase of the cell cycle) [1]: 14.3%
S (percentage of cells in phase of the cell cycle) [1]: 24.2%
SubG1 (percentage of cells in phase of the cell cycle) [1]: 1.9%
aneuploid (percentage of cells) [1]: 15.1%

340365 (antisense TACTTTATATAGAACACAAG; sugars from the 5' end e5 d10 e5, all phosphorothioate, methylation of C not given here) [compound 340365]
G1 (percentage of cells in phase of the cell cycle) [1]: 55.2%
G2/M (percentage of cells in phase of the cell cycle) [1]: 15.4%
S (percentage of cells in phase of the cell cycle) [1]: 29.4%
SubG1 (percentage of cells in phase of the cell cycle) [1]: 4.3%
aneuploid (percentage of cells) [1]: 18.3%
% cells aneuploid (HeLa cells; [2]): 84%
% cells in cell cycle phase G1 (HeLa cells; [2]): 125%
% cells in cell cycle phase G2/M (HeLa cells; [2]): 114%
% cells in cell cycle phase S (HeLa cells; [2]): 71%
% cells in cell cycle phase subG1 (HeLa cells; [2]): 109%
% cells in cell cycle phase: G1 (HeLa cells; [3]): 99%
% cells in cell cycle phase: G2/M (HeLa cells; [3]): 109%
% cells in cell cycle phase: S (HeLa cells; [3]): 94%
% cells in cell cycle phase: aneuploid (HeLa cells; [3]): 129%
% cells in cell cycle phase: subG1 (HeLa cells; [3]): 71%

AGCCTATCCTGGATTACTTGAA (anti-miR; chemistry not fully specified) [ISIS 327907, uniform 2′-MOE PS; targets mir-26a]
percentage of aneuploid cells ([1]; 150 nM, 72 hours (Table 29)): higher than average percentages of aneuploid cells
percentage of cells with hypodiploid DNA content (subG1) ([1]; 150 nM, 72 hours (Table 29)): increased percentage of cells with hypodiploid DNA content

TCATAGCCCTGTACAATGCTGCT (anti-miR; chemistry not fully specified) [ISIS 327906, uniform 2′-MOE PS; targets mir-103-1]
percentage of cells in the G2/M phase ([1]; 150 nM, 72 hours (Table 29)): increased percentage of cells in the G2/M phase
percentage of cells with hypodiploid DNA content (subG1) ([1]; 150 nM, 72 hours (Table 29)): increased percentage of cells with hypodiploid DNA content

340348 (antisense CTACCTGCACGAACAGCACTTT; all 2'-MOE, all phosphorothioate, methylation of C not given here) [compound 340348]
GLUT4 mRNA (Glut4; [4]): 52 percentage of untreated control (UTC)
G1 (percentage of cells in phase of the cell cycle) [1]: 53.9%
G2/M (percentage of cells in phase of the cell cycle) [1]: 14.3%
S (percentage of cells in phase of the cell cycle) [1]: 31.8%
SubG1 (percentage of cells in phase of the cell cycle) [1]: 14.1%
aneuploid (percentage of cells) [1]: 12.3%
TG (triglyceride accumulation) (adipocytes; [4]): 48 percentage of untreated control (UTC)
PPAR gamma mRNA (PPARγ; [4]): 78 percentage of untreated control (UTC)
aP2 mRNA (aP2): 68 percentage of untreated control (UTC)
HSL mRNA (HSL; [4]): 57 percentage of untreated control (UTC)

344616 (AGAGGUCGACCGUGUAAUGUGC; anti-miR; all 2'-MOE, all phosphorothioate, methylation of C and T or U not given here) [compound 344616]
GLUT4 mRNA (Glut4; [4]): 2 percentage of untreated control (UTC)
TG (triglyceride accumulation) (adipocytes; [4]): 32 percentage of untreated control (UTC)
PPAR gamma mRNA (PPARγ; [4]): 36 percentage of untreated control (UTC)
aP2 mRNA (aP2): 26 percentage of untreated control (UTC)
HSL mRNA (HSL; [4]): 23 percentage of untreated control (UTC)

346907 (AUGUAUGUGGGACGGUAAACCA; all 2'-MOE, all phosphorothioate, methylation of C and T or U not given here) [compound 346907]
GLUT4 mRNA (Glut4; [4]): 37 percentage of untreated control (UTC)
TG (triglyceride accumulation) (adipocytes; [4]): 47 percentage of untreated control (UTC)
PPAR gamma mRNA (PPARγ; [4]): 51 percentage of untreated control (UTC)
aP2 mRNA (aP2): 50 percentage of untreated control (UTC)
HSL mRNA (HSL; [4]): 36 percentage of untreated control (UTC)

341798 (antisense GCAUUAUUACUCACGGUACGA; all 2'-MOE, all phosphorothioate, methylation of C and T or U not given here) [compound 341798]
GLUT4 mRNA (Glut4; [4]): 55 percentage of untreated control (UTC)
TG (triglyceride accumulation) (adipocytes; [4]): 62 percentage of untreated control (UTC)
PPAR gamma mRNA (PPARγ; [4]): 70 percentage of untreated control (UTC)
aP2 mRNA (aP2): 84 percentage of untreated control (UTC)
HSL mRNA (HSL; [4]): 77 percentage of untreated control (UTC)

328122 (antisense e[5mC]*eA*eA*eA*eA*e[5mC]*eA*eT*eA*eA*eA*eA*eA*eT*e[5mC]*e[5mC]*eT*eT*eG*e[5mC]*eA) [compound 328122]
GLUT4 mRNA (Glut4; [5]): 85.9 percentage of control
GLUT4 mRNA (Glut4; [4]): 91 percentage of untreated control (UTC)
TG (triglyceride accumulation) (adipocytes; [5]): 78.9 percentage of control
TG (triglyceride accumulation) (adipocytes; [4]): 97 percentage of untreated control (UTC)
PPAR gamma mRNA (PPARγ; [5]): 77.8 percentage of control
PPAR gamma mRNA (PPARγ; [4]): 103 percentage of untreated control (UTC)
AP2 mRNA (aP2; [5]): 79.3 percentage of control
aP2 mRNA (aP2): 99 percentage of untreated control (UTC)
HSL mRNA (HSL; [5]): 72.7 percentage of control
HSL mRNA (HSL; [4]): 89 percentage of untreated control (UTC)
